Test results reported in US20260035339A1, “TETRAHYDRONAPHTHALENE DERIVATIVE” (ATRANSEN PHARMA LTD., priority 2022, published 2026).

Legend:
Format in all cases: cell-based
[1] = test system: Mouse colorectal cancer-derived CT26 cells; test: Cell proliferation inhibitory effect using mouse colorectal cancer cells (CCK-8 assay); conditions: 72 hours compound treatment, read-out: Evaluation of IC50 (proliferation inhibition rate of 50%)
Procedure: Mouse colorectal cancer-derived CT26 cells were adjusted to […], seeded in a 96-well plate at 1000 cells/well, and cultured in a 10% fetal bovine serum-added RPMI 1640 medium at 5% CO2 and 37° C. The culture medium was changed 24 hours after the start of the culture, and the medium containing the compound of Example was replaced to examine the action of the compound on cell proliferation. As the compound, a concentration of 0.01, 0.03, 0.1, 0.3, 1, 3, 10, or 30 μM was used. As a control, the cells were cultured in a medium containing no compound. The number of cells was evaluated by CCK-8 assay (Cell Counting Kit-8, DOJINDO LABORATORIES) 72 hours after the start of the compound treatment, and the compound concentration (IC50 value) giving a proliferation inhibition rate of 50% as compared with the control was calculated.

human LAT1 [2] = target: T1, human LAT1 (Homo sapiens, UniProt Q01650); test: Leucine uptake persistence inhibitory effect after compound removal in human-LAT1 highly expressing cell line; conditions: 20 μM compound for 30 minutes, removed, uptake measured 30 minutes later
T1 sequence (Q01650 whole entry): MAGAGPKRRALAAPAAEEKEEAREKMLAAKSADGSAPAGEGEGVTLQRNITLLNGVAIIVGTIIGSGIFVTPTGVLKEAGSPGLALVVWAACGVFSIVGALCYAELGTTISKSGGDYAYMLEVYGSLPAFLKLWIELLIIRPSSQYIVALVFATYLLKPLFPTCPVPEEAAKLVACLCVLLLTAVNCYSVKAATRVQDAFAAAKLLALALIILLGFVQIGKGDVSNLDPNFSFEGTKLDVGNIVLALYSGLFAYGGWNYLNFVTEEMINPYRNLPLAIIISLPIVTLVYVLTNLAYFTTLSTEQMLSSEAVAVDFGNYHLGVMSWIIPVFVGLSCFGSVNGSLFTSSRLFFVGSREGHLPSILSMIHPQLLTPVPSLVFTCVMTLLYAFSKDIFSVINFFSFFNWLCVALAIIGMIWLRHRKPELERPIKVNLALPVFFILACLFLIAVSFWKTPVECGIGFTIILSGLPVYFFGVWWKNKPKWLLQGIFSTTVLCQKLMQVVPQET
T1 sequence (P08195 102-630 partner): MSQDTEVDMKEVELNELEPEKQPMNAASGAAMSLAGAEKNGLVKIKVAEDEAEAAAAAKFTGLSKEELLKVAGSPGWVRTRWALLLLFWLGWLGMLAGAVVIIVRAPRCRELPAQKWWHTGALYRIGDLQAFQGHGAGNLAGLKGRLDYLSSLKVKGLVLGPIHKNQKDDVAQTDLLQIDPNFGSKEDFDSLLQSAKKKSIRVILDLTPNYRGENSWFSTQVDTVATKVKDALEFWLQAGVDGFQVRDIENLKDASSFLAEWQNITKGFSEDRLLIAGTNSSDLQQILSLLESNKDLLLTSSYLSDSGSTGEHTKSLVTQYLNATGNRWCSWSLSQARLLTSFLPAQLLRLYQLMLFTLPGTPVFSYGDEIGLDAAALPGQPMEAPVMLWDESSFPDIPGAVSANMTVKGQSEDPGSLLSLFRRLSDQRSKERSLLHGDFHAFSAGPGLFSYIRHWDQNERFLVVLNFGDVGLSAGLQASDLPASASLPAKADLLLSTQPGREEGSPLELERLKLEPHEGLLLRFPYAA
Procedure: The uptake of [^14C]L-leucine remaining after the compound of the present invention was caused to act in advance and removed in the human-LAT1 highly expressing cell line was examined. In the same manner as in the uptake inhibition test, the cell line was seeded in a 24-well plate, and an MEM (Minimum Essential Medium) medium containing 20 μM of the compound (racemic form) was added to the wells and allowed to act for 30 minutes. An MEM medium containing no compound was used as a control. After the compound was caused to act, the cells were washed 3 times with the MEM medium and cultured in the MEM medium for an additional 30 minutes. Thereafter, washing was performed 3 times with Na^+Free-HBSS, and 1 μM of [^14C]L-leucine dissolved in Na^+Free-HBSS was taken up for 1 minute. The cells were washed 3 times with ice-cooled Na^+Free-HBSS, and the amount of [^14C]L-leucine taken up in the cells was determined with a liquid scintillator. In the same manner as in other tests, the amount of protein in the cell fluid was measured, and the uptake amount of [^14C]L-leucine per 1 mg of protein in the cell fluid per minute was determined.

human LAT1 [3] = target: T1, human LAT1; test: [14C]L-leucine uptake inhibition test using human-LAT1 stably expressing HEK293 cell line; parameters: having full-length cDNA of human LAT1 or LAT2 inserted under a promoter of CMV; expressed in transfected cells; key to Assay Data: degree of [14C]L-leucine uptake inhibition compared with BCH: a test compound having a higher inhibitory effect than BCH is denoted by A; a test compound having the same inhibitory effect as BCH is denoted by B; a test compound having a lower inhibitory effect than BCH is denoted by C; conditions: for Assay Data: degree of [14C]L-leucine uptake inhibition compared with BCH: compound (racemic form) and BCH at 0.1, 1.0, 10 μM, 1 μM [14C]L-leucine, 1 minute, Na+-free HBSS; for LAT1 inhibitory effect, compounds singled out (in words): same test as Table 1
Source text: HEK293 cells stably expressing human LAT1 and LAT2 were produced, respectively.
A shuttle vector DNA (LAT1: pcDNA3.1(+) -hLAT1, LAT2: pcDNA3.1(+) -hLAT2; expression vector pcDNA3.1 (+) was produced by Invitrogen Corp.) having ampicillin and neomycin resistance markers and having full-length cDNA of human LAT1 or LAT2 inserted under a promoter of CMV (cytomegalovirus) was constructed. This vector was transfected into the HEK293 cells by a method using Lipofectamine (registered trademark) 2000 (Invitrogen Corp.) according to the manufacturer's instructions. Thereafter, stably expressing cell clones of transgene were selected by a limiting dilution method in the presence of 0.9 mg/mL of Geneticin (registered trademark), and among the obtained cell clones, cell clones having a high uptake of [^14C]L-leucine and maintaining stable expression even after 10 passages were obtained. These cells were used for evaluating affinity and selectivity for LAT1 and LAT2.
1-1. It has been confirmed that LAT1 is responsible for L-leucine uptake in the absence of sodium ions in the human-LAT1 stably expressing HEK293 cell line. The human-LAT1 stably expressing HEK293 cell line was seeded in a 24-well plate at 1×10^5 Cell/Well, and the [^14C]L-leucine uptake inhibition test using the compound was performed after 48 hours. After the medium was removed and the cells were washed with Hank's balanced salt solution (Na^+-free HBSS) not containing sodium ions, the cells were cultured in Na^+-free HBSS for 10 minutes. Thereafter, 1 μM of [^14C]L-leucine was taken up in Na^+-free HBSS in the presence of a test compound (0.1, 1.0, 10, 0 μM in each case), which is a racemic form, for 1 minute, and then the cells were washed three times with ice-cooled Na^+-free HBSS. To the well, 500 μL of 1 M NaOH was added, and after 30 minutes, the cells were lysed, and the cell lysate was collected. The amount of [^14C]L-leucine in the cell lysate was determined using a liquid scintillator. The amount of protein in the cell lysate was measured using BCA Assay Kit (Thermofisher Scientific), and the uptake amount of [^14C]L-leucine per 1 mg of protein in the cell per minute was calculated.
The degree of LAT1 inhibition of the compound obtained in the present invention was compared with BCH (BCH, 2-aminobicyclo-(2,2,1)-heptane-2-carboxylic acid), which is an existing LAT1 inhibitor. In the [^14C]L-leucine uptake inhibition test described above, the degrees of inhibition of [^14C]L-leucine uptake inhibition using the compound (racemic form) obtained in Examples and BCH (0.1, 1.0, 10, 0 μM for both) were compared. […] In the table, a test compound having a higher inhibitory effect than BCH is denoted by A, a test compound having the same inhibitory effect as BCH is denoted by B, and a test compound having a lower inhibitory effect than BCH is denoted by C.

SMILES	IC50 [1] [nM]	sustained LAT1 inhibitory effect as compared with Example 1-1 (human LAT1 [2])	Assay Data: degree of [14C]L-leucine uptake inhibition compared with BCH (human LAT1 [3])	LAT1 inhibitory effect, compounds singled out (in words) (human LAT1 [3])
Cl.NC1(C(=O)O)CCc2ccc(Oc3ccccc3-c3cccc(Cl)c3Cl)cc2C1 (stereo not drawn) [Example 1-53, 2-carboxy-7-((2′,3′-dichloro-[1,1′-biphenyl]-2-yl)oxy)-1,2,3,4-tetrahydronaphthalene-2-aminium chloride]	≤ 900	more remarkable effect	A	particularly remarkable effects
Cc1cccc(-c2ccccc2Oc2ccc3c(c2)CC(N)(C(=O)O)CC3)c1F.Cl (stereo not drawn) [Example 1-55, 2-Carboxy-7-((2′-fluoro-3′-methyl-[1,1′-biphenyl]-2-yl)oxy)-1,2,3,4-tetrahydronaphthalene-2-aminium chloride]	≤ 900	more remarkable effect	A	particularly remarkable effects
CN(C)c1cccc(-c2ccccc2Oc2ccc3c(c2)CC(N)(C(=O)O)CC3)c1.Cl.Cl (stereo not drawn) [Example 1-50, 2-Carboxy-7-((3′-(Dimethylammonio)-[1,1′-biphenyl]-2-yl)oxy)-1,2,3,4-tetrahydronaphthalene-2-aminium chloride]	≤ 900	more remarkable effect	A	–
Cl.NC1(C(=O)O)CCc2ccc(Oc3ccccc3-c3ccc(F)c(F)c3F)cc2C1 (stereo not drawn) [Example 1-58, 2-carboxy-7-((2′,3′,4′-trifluoro-[1,1′-biphenyl]-2-yl)oxy)-1,2,3,4-tetrahydronaphthalene-2-aminium chloride]	≤ 900	more remarkable effect	A	particularly remarkable effects
Cc1cccc2cccc(Oc3ccc4c(c3)CC(N)(C(=O)O)CC4)c12.Cl (stereo not drawn) [Example 1-46, 2-carboxy-7-((8-methylnaphthalen-1-yl)oxy)-1,2,3,4-tetrahydronaphthalene-2-aminium chloride]	≤ 900	more remarkable effect	A	particularly remarkable effects
CSc1cccc(-c2ccccc2Oc2ccc3c(c2)CC(N)(C(=O)O)CC3)c1.Cl (stereo not drawn) [Example 1-52, 2-Carboxy-7-((3′-(methylthio)-[1,1′-biphenyl]-2-yl)oxy)-1,2,3,4-tetrahydronaphthalene-2-aminium chloride]	≤ 900	more remarkable effect	A	–
Cl.NC1(C(=O)O)CCc2ccc(Oc3ccccc3-c3cc(F)cc(F)c3F)cc2C1 (stereo not drawn) [Example 1-63, 2-carboxy-7-((2′,3′,5′-trifluoro-[1,1′-biphenyl]-2-yl)oxy)-1,2,3,4-tetrahydronaphthalene-2-aminium chloride]	≤ 900	more remarkable effect	A	particularly remarkable effects
Cl.NC1(C(=O)O)CCc2ccc(Oc3ccccc3-c3ccc(F)c(Cl)c3)cc2C1 (stereo not drawn) [Example 1-48, 2-carboxy-7-((3′-Chloro-4′-fluoro-[1,1′-biphenyl]-2-yl)oxy)-1,2,3,4-tetrahydronaphthalene-2-aminium chloride]	≤ 900	more remarkable effect	A	–
Cl.NC1(C(=O)O)CCc2ccc(Oc3ccccc3-c3cccc(F)c3)cc2C1 (stereo not drawn) [Example 1-30, 2-carboxy-7-((3′-fluoro-[1,1′-biphenyl]-2-yl)oxy)-1,2,3,4-tetrahydronaphthalene-2-aminium chloride]	≤ 900	more remarkable effect	A	–
CCc1cccc(-c2ccccc2Oc2ccc3c(c2)CC(N)(C(=O)O)CC3)c1.Cl (stereo not drawn) [Example 1-47, 2-carboxy-7-((3′-ethyl-[1,1′-biphenyl]-2-yl)oxy)-1,2,3,4-tetrahydronaphthalene-2-aminium chloride]	≤ 900	–	A	–
NC1(C(=O)O)CCc2ccc(Oc3ccccc3-c3cc(F)cc(Cl)c3Cl)cc2C1 (stereo not drawn) [Example 1-67, 2-carboxy-7-((2′,3′-dichloro-5′-fluoro-[1,1′-biphenyl]-2-yl)oxy)-1,2,3,4-tetrahydronaphthalene-2-aminium chloride]	≤ 900	–	A	–
Cl.NC1(C(=O)O)CCc2ccc(Oc3ccccc3-c3cc(F)cc(F)c3)cc2C1 (stereo not drawn) [Example 1-65, 2-Carboxy-7-((3′,5′-difluoro-[1,1′-biphenyl]-2-yl)oxy)-1,2,3,4-tetrahydronaphthalene-2-aminium chloride]	≤ 900	–	A	–
COc1cccc(-c2ccccc2Oc2ccc3c(c2)CC(N)(C(=O)O)CC3)c1.Cl (stereo not drawn) [Example 1-39, 2-carboxy-7-((3′-methoxy-[1,1′-biphenyl]-2-yl)oxy)-1,2,3,4-tetrahydronaphthalene-2-aminium chloride]	≤ 900	–	A	–
Cl.NC1(C(=O)O)CCc2ccc(Oc3ccccc3-c3cc(F)cc(Cl)c3)cc2C1 (stereo not drawn) [Example 1-66, 2-Carboxy-7-((3′-chloro-5′-fluoro-[1,1′-biphenyl]-2-yl)oxy)-1,2,3,4-tetrahydronaphthalene-2-aminium chloride]	≤ 900	–	A	–
